Results published in US20210116454A1, “METHODS FOR TREATING A HEMATOLOGICAL CANCER AND THE USE OF COMPANION BIOMARKERS FOR 2-(2,6-DIOXOPIPERIDIN-3-YL)-4-((2-FLUORO-4-((3-MORPHOLINOAZETIDIN-1-YL)METHYL)BENZYL)AMINO)ISOINDOLINE-1,3-DIONE” (CELGENE CORPORATION, priority 2019, published 2021).
Like-named read-outs stand apart in the source and are kept apart here.

Columns and labels:
[1] = biological target: T1, Aiolos (Homo sapiens, UniProt Q96SW2+Q9UKT9); assay: Enzyme fragment complementation (EFC) degradation assay, DF15 cells expressing ePL-tagged substrate; type: cell-based; conditions: for Emax: DF15, DF15 ePL-Aiolos, remaining substrate; for DC50: DF15 ePL-Aiolos, read-out: Aiolos degradation EC50
T1 construct: expressed in transfected cells; host or cells: DF15 cells

[2] = biological target: T2, ZFP91 (Homo sapiens, UniProt Q96JP5+Q96SW2); assay: as above; type: cell-based; conditions: for Emax: remaining substrate; for DC50: read-out: ZFP91 degradation EC50
T2 construct: expressed in transfected cells; host or cells: DF15 cells

[3] = test system: SU-DHL-4; assay: CellTiter-Glo (CTG) antiproliferative assay, 5-day; type: cell-based; conditions: Homo sapiens, 120 h; SU-DHL-4, 5-day assay, n = 6
Protocol: To evaluate the activity of both Compound 1 and Compound 2 in DLBCL cells, a CellTiter-Glo (CTG) assay was performed to measure the antiproliferative activity.

[4] = biological target: cereblon (CRBN) (Homo sapiens, UniProt Q96SW2); assay: Cereblon binding TR-FRET ligand competition assay
Protocol: To investigate whether Compound 1 and its R-enantiomer Compound 2 could bind to cereblon, a short duration (10 to 20 minutes) ligand competition assay was used.

[5] = biological target: T1, Aiolos; assay: ePL-tagged substrate degradation kinetics in DF15 cells (enantiomer comparison); type: cell-based; set-up: Aiolos Y-constant: scale not given here; conditions: for DC50: read-out: Aiolos EC50
Protocol: In a second assay, DF15 cell lines expressing ePL-tagged target protein substrates were used as a model system to monitor protein degradation at 0.75, 1, 1.5, 3, 4, and 24 hours over a concentration range from 1 pM to 10 μM. The proteins evaluated were Ikaros (FIG. 17), Aiolos, and ZFP91. Compound 1 and Compound 2 were both able to degrade the substrate proteins at all time points (Table 9). In a further assay, additional time points were included to monitor the effect of treatment with Compound 1 and Compound 2.
The depth of substrate protein degradation described by the Y-constant was also measured in this assay against a negative control luciferase inhibitor (CC1071297, Y-constant=0).

[6] = biological target: T3, Ikaros (Homo sapiens, UniProt Q13422+Q96SW2); assay: Ikaros degradation in anti-CD3 stimulated PBMCs by flow cytometry; type: cell-based
Protocol: Purified PBMCs from four healthy donors were plated on anti-CD3-coated plates to stimulate T cells and subsequently treated with either DMSO (control) or Compound 1 at various concentrations. The ability of Compound 1 to promote the degradation of Ikaros was assessed over time by flow cytometry (FIG. 12).

[7] = test system: Peripheral blood mononuclear cells derived from four healthy donors; assay: Viability of CD3-stimulated PBMCs (Viobility Fixable Dye, flow cytometry); type: cell-based
Protocol: To establish that this was due to the effect of the compound in promoting Ikaros degradation and not because of a lack of cell proliferation or viability of the CD3-stimulated PBMCs, the effect of Compound 1 on their viability was assessed by flow cytometry. […] Peripheral blood mononuclear cells derived from four healthy donors were exposed to Compound 1 at concentrations of 0.1, 1, 10, or 100 nM for 3, 4, or 7 days, and viability was measured by staining with Viobility™ Fixable Dye. […] The trend in cell viability continued through day 7, with Compound 1 treatment not effecting the viability of the PBMCs.

[8] = test system: exhausted T cells; assay: SEB-induced T-cell exhaustion restimulation assay, effector cytokine release (MSD); type: cell-based; conditions: for EC50: T cell restimulation assay
[9] = test system: LPS system; assay: BioMAP LPS system (PBMCs and endothelial cells); type: cell-based, human; conditions: 0.01, 0.1, 1, and 10 μM
Protocol: (§1) The activity of Compound 1 was profiled in a panel of human primary cell-based assays, modeling complex tissue and disease biology of organs (vasculature, immune system, skin, lung) and general tissue biology using the BioMAP System (DiscoveRx, Fremont, Calif.).
(§2) The BioMAP System consists of twelve primary human monoculture or co-culture systems in stimulated and non-stimulated control conditions (FIG. 4, panel A). When tested at 0.01, 0.1, 1, and 10 μM, Compound 1 mediated changes in key biomarker activities. Specifically, the profiles for Compound 1 reflected selective anti-inflammatory and immunomodulatory impact on monocyte (LPS) and T cell dependent B cell activation responses (BT). Treatment with Compound 1 led to a decrease in interleukin 8 (IL-8), interleukin 1a (IL-1a), secreted prostaglandin E2 (sPGE2), and secreted tumor necrosis factor alpha (sTNFα) in the LPS system, which consisted of peripheral blood mononuclear cells (PBMCs) and endothelial cells. Furthermore, secreted IgG (sIgG), secreted interleukin 17A (sIL-17A), secreted interleukin 17F (sIL-17F), and sTNFα decreased, whereas secreted interleukin 2 (sIL-2) and secreted interleukin 6 (sIL-6) increased, in the BT system, which was comprised of B cells and PBMCs.

[10] = test system: BT system; assay: BioMAP BT system (B cells and PBMCs); type: cell-based, human; conditions: 0.01, 0.1, 1, and 10 μM
Protocol: as §1, §2

[11] = test system: MyoF system; assay: BioMAP MyoF system (lung fibroblasts); type: cell-based, human; conditions: 0.01, 0.1, 1, and 10 μM
Protocol: as §1, §2

[12] = biological target: T3, Ikaros; assay: Enzyme fragment complementation (EFC) degradation assay, DF15 cells expressing ePL-tagged substrate; type: cell-based; set-up: expressed in transfected cells; host or cells: DF15 cells; conditions: for Emax: DF15, DF15 ePL-Ikaros, remaining substrate; for DC50: DF15 ePL-Ikaros, read-out: Ikaros degradation EC50

`O=C1CC[C@H](N2C(=O)c3cccc(NCc4ccc(CN5CC(N6CCOCC6)C5)cc4F)c3C2=O)C(=O)N1` [Compound 1, (S)-2-(2,6-dioxopiperidin-3-yl)-4-((2-fluoro-4-((3-morpholinoazetidin-1-yl)methyl)benzyl)amino)isoindoline-1,3-dione] gave an Emax ([1]; 1 hour) of 60%, an Emax ([1]; 2 hours) of 16.5% and an Emax ([1]; 6 hours) of 6%. For the same compound, the Emax ([1]; 24 hours) was 7%, the DC50 ([1]; 1 hour) was 0.6 nM and the DC50 ([1]; 2 hours) was 0.5 nM. The DC50 ([1]; 6 hours) was 0.2 nM, the DC50 ([1]; 24 hours) was 0.2 nM and the Emax ([2]; DF15, DF15 ePL-ZFP91, 1 hour) was 64%. The Emax ([2]; DF15, DF15 ePL-ZFP91, 2 hours) was 26.5%, the Emax ([2]; DF15, DF15 ePL-ZFP91, 6 hours) was 4% and the Emax ([2]; DF15, DF15 ePL-ZFP91, 24 hours) was 2.5%. For the same compound, the DC50 ([2]; DF15 ePL-ZFP91, 1 hour) was 1 nM, the DC50 ([2]; DF15 ePL-ZFP91, 2 hours) was 0.5 nM and the DC50 ([2]; DF15 ePL-ZFP91, 6 hours) was 0.2 nM. The DC50 ([2]; DF15 ePL-ZFP91, 24 hours) was 0.1 nM, the IC50 [3] was 22 nM and the “higher binding affinity for CRBN compared to Compound 2” value [4] was “eleven-fold”. For the same compound, the IC50 ([4]; 10 to 20 minutes, n=5) was 860 ± 100 nM, the “Aiolos Y-constant” value ([5]; 0.75 hours) was 46 and the DC50 ([5]; 0.75 hours) was 0.73 nM. The “Aiolos Y-constant” value ([5]; 1 hour) was 29, the DC50 ([5]; 1 hour) was 0.94 nM and the “Aiolos Y-constant” value ([5]; 1.5 hours) was 11. The DC50 ([5]; 1.5 hours) was 0.72 nM, the “Aiolos Y-constant” value ([5]; 3 hours) was 4.8 and the DC50 ([5]; 3 hours) was 0.6 nM. For the same compound, the “Aiolos Y-constant” value ([5]; 4 hours) was 3.9, the DC50 ([5]; 4 hours) was 0.56 nM and the “Aiolos Y-constant” value ([5]; 24 hours) was 4.0. The DC50 ([5]; 24 hours) was 0.52 nM, the “duration of Ikaros degradation after a single treatment” value [6] was “maintained up to 7 days” and the “Ikaros in PBMCs (percentage of Ikaros positive cells)” value ([6]; four healthy donors) was “concentration-dependent degradation”. The “effect on PBMC viability” value ([7]; 0.1, 1, 10, or 100 nM for 3, 4, or 7 days) was “no significant effect”, the “viable PBMCs” value ([7]; day 3 and day 4, 0.1, 1, 10, or 100 nM) was “roughly 80%” and the EC50 ([8]; read-out: EC50 for secreted GM-CSF levels) was 6 nM. It also gave an EC50 ([8]; read-out: EC50 for secreted IFNγ) of 10 nM, an EC50 ([8]; read-out: EC50 for secreted TNFα) of 10 nM and a GM-CSF secretion ([8]; approximately 0.001 μM for 96 hours) of 3000 pg/mL. The GM-CSF secretion ([8]; approximately 0.01 μM for 96 hours) was 10,000 pg/mL, the GM-CSF secretion plateau ([8]; concentrations greater than 0.1 μM, 96 hours) was “under 15,000 pg/mL” and the “IL-8, IL-1a, sPGE2, and sTNFα” value [9] was “decrease”. For the same compound, the “sIL-2 and sIL-6” value [10] was “increased”, the “sIgG, sIL-17A, sIL-17F, and sTNFα” value [10] was “decreased” and the “collagen-I and -III expression” value [11] was “compelling inhibition”. For the same compound, the “plasminogen activator inhibitor-1 (PAI-1) expression” value [11] was “slight inhibition”, the Emax ([12]; 1 hour) was 75.5% and the Emax ([12]; 2 hours) was 33%. The Emax ([12]; 6 hours) was 1.5%, the Emax ([12]; 24 hours) was 0.03% and the DC50 ([12]; 1 hour) was 0.6 nM. For the same compound, the DC50 ([12]; 2 hours) was 0.8 nM, the DC50 ([12]; 6 hours) was 0.5 nM and the DC50 ([12]; 24 hours) was 0.4 nM.
